According to patent US12383534B2, “Methods for treating cancer” (REGENTS OF THE UNIVERSITY OF MINNESOTA, priority 2021, dated 2025):

Assays:
NCC-CDS-X1 cells = assay: Immunofluorescence for Ki-67 in NCC-CDS-X1 cells; format: cell-based, human; settings: NCC-CDS-X1, 24 hours, 0.3 μM
Procedure: (§1) For western blot analyses, cells were lysed with RIPA buffer supplemented with protease inhibitor cocktail (Complete, Roche), and proteins were separated on 10% SDS-PAGE gels, then transferred to PVDF membranes. Antibodies were diluted in 5% skim milk in TBST and incubated overnight at 4° C. or 1 hour at RT. An appropriate secondary HRP conjugated antibody was incubated for 1 hour at RT. Membranes were then washed with TBST, and signal was visualized using Pierce ECL western blotting substrate (Thermo Scientific). For immunofluorescence, cells cultured in 96 well plates were fixed in 4% PFA for 10 min., washed twice with PBS, permeabilized with 0.3% Triton X for 30 min, and blocked with 3% BSA for 1 hour at R/T. Primary antibodies were diluted in 3% BSA and incubated o/n at 4° C. An appropriate conjugated secondary antibody was applied for 60 min at RT. Nuclei were visualized using DAPI (1:5000, Sigma). […]

[1] = Cell viability (ATP) assay in colorectal cancer cells; format: cell-based; settings: cancer and colorectal cell lines expected to have a general p300/CBP dependence
Procedure: (§2) Cell lines were plated in a 96 well dish (1×10^5 cells/well), and the following day were treated with iP300w or its stereoisomers. ATP assays were performed using CellTiter-Glo® Luminescent Cell Viability Assay (Promega) according to the manufacturer's instructions. Luminescence was analyzed on POLARstar Optima Microplate Reader (BMG Labtech, Offenburg, Germany).
(§3) Pancreatic and colorectal cancer cell lines were treated with iP300w to further distinguish its specificity to CDS from general cytotoxicity. p300/CBP have been correlated with the invasive and migratory properties of pancreatic and colorectal cancers (Iyer, N. G. et al., Proceedings of the National Academy of Sciences of the United States of America 101, 7386-7391 (2004); and Paladino, D. et al, Oncotarget 7, 7253-7267 (2016)). […] This further supports the specific efficacy of iP300w against cancers bearing p300-dependent oncogenic fusion transcription factors (such as CIC-DUX4), vis-à-vis cancers that may show some degree of growth inhibition by iP300w due simply to p300-dependent proliferative pathways.

[2] = tested on: HTC116, MKN28, KATO3 colorectal cancer cells; assay: as above; format: cell-based; settings: serial dilutions, 48 hours
Procedure: as §2, §3

[3] = tested on: NCC-CDS-X1 subcutaneous xenograft tumors; assay: NCC-CDS-X1 xenograft tumor growth in mice; format: in vivo, mouse; settings: 1.4 mg/kg b.i.d. intraperitoneally from day 9, 12 days
Procedure: Mice were maintained, and in vivo experiments were conducted at the University of Minnesota Research Animal Resources facility, under a protocol (1903-36866A) approved by IACUC. Immunodeficient NSG-MDX mice (n=8) were transplanted with 1×10^7 NCC-CDS-X1 cells resuspended in 100 uL of a mixture of medium and Matrigel (Corning). Visible tumor masses at the sites of injection were detected on day 9 after transplantation. All the injected mice developed tumors. At this point, the mice were randomized into two groups, control and iP300w treated, and initial measurement of the tumors was performed. iP300w was initially dissolved in DMSO at 10 mM and then diluted in 100 uL PBS. Each mouse received 1.4 mg/kg iP300w intraperitoneally twice daily or vehicle in the control group. Tumor size was recorded every 4 days and the volume was calculated using the formula (length×width^2)/2.
Finally, the effectiveness of iP300w to suppress CDS tumor growth in vivo was assessed. NCC-CDS-X1 cells were used to generate subcutaneous xenograft tumors in immunodeficient NSG mice (n=8). When tumors were palpable (day 9) iP300w injections (1.4 mg/kg b.i.d.) were initiated and the progression of tumor growth was monitored.

[4] = tested on: global H3K18 and H3K27 acetylation; assay: Western blot for H3 acetylation markers in NCC-CDS-X1 cells; format: cell-based, human; settings: NCC-CDS-X1, 18 hours
Procedure: as §1

p300 and CBP = settings: in vitro and in vivo; cited from earlier work

Structure (SMILES): CNC(=O)Cn1cc(-c2ccc3c(c2)[C@H](F)C[C@]32NC(=O)N(CC(=O)N(Cc3ccc(F)cc3)[C@@H](C)C(F)(F)F)C2=O)cn1 (single isomer, unassigned) [iP300w]
- Ki-67 positive staining (NCC-CDS-X1 cells): almost complete absence of Ki-67 positive staining
- concentration at which growth inhibition is first observed [1]: ≥ 0.3 µM
- effect on cell viability [2]: no significant effect on cell viability
- treated mice with tumor growth halted [3]: 5/8
- treated mice with tumor growth significantly diminished [3]: 3/8
- effect on global H3K18 and H3K27 acetylation [4]: reduces global H3K18 and H3K27 acetylation
- inhibition of acetylation by p300 and CBP (p300 and CBP): inhibit acetylation by p300 and CBP both in vitro and in vivo
